Experimental data as given in US12247031B2, “Cyclobutyl pyrazolopyrimidine PDE9 inhibitors” (Merck Sharp & Dohme LLC, priority 2018, dated 2025).

Each compound was assayed against Human PDE9 (PDE9A2) (Homo sapiens (Human), UniProt O76083) (assay: PDE9 IMAP fluorescence polarization assay). Conditions: human PDE9A2, FAM-cGMP substrate 50 nM, IMAP FP, apparent inhibition constant.
Type: biochemical
Protocol: The activity of the compounds in accordance with the present invention as PDE9 inhibitors may be readily determined without undue experimentation using a fluorescence polarization (FP) methodology that is well known in the art (Huang, W., et al., J. Biomol Screen. 2002, 7: 215).
In a typical experiment the PDE9 inhibitory activity of the compounds of the present invention was determined in accordance with the following experimental method.
Human PDE9 (PDE9A2, GenBank Accession No. NM_001001567), full length with N-terminal GST tag, was purchased from BPS Bioscience. The fluorescence polarization assay for cyclic nucleotide phosphodiesterases was performed using an IMAP® FP kit supplied by Molecular Devices, Sunnyvale, CA (product #R8139). IMAP® technology has been applied previously to phosphodiesterase assays (Huang, W., et al., J. Biomol Screen. 2002, 7: 215).
Fluorescence polarization (mP) was calculated from the parallel (S) and perpendicular (P) fluorescence of each sample well and the analogous values for the median control well, containing only substrate (So and Po), using the following equation: Polarization (mP)=1000*(S/So−P/Po)/(S/So+P/Po).
Dose-inhibition profiles for each compound were characterized by fitting the mP data to a four-parameter equation given below. The apparent inhibition constant (KI), the maximum inhibition at the low plateau relative to “100% Inhibition Control” (Imax; e.g. 1=>same as this control), the minimum inhibition at the high plateau relative to the “0% Inhibition Control” (Imin, e.g. 0=>same as the no drug control) and the Hill slope (nH) are determined by a non-linear least squares fitting of the mP values as a function of dose of the compound using an in-house software based on the procedures described by Mosser et al., JALA. 2003, 8: 54-63, using the following equation: […]
`C[C@@H](c1ccc(C(F)(F)F)nc1)n1nc(C#N)c2c(=O)[nH]c(C3CCC3c3cc4n(n3)CCC4)nc21` (stereo partly drawn) [Example 12, 6-(2-(5,6-dihydro-4H-pyrrolo[1,2-b]pyrazol-2-yl)cyclobutyl)-4-oxo-1-((S)-1-(6-(trifluoromethyl)pyridin-3-yl)ethyl)-4,5-dihydro-1H-pyrazolo[3,4-d]pyrimidine-3-carbonitrile] gave a Ki of 608 nM. Compound `C[C@@H](c1ccc(C(F)(F)F)nc1)n1nc(C#N)c2c(=O)[nH]c(C3CCC3c3cncnc3)nc21` (stereo partly drawn) [Example 22, 4-oxo-6-(2-(pyrimidin-5-yl)cyclobutyl)-1-((S)-1-(6-(trifluoromethyl)pyridin-3-yl)ethyl)-4,5-dihydro-1H-pyrazolo[3,4-d]pyrimidine-3-carbonitrile] has a Ki of 608 nM. `C[C@@H](c1ccc(C(F)(F)F)nc1)n1nc(C#N)c2c(=O)[nH]c(C3CCC3c3cncnc3)nc21` (stereo partly drawn) [Example 23, 4-oxo-6-(2-(pyrimidin-5-yl)cyclobutyl)-1-((S)-1-(6-(trifluoromethyl)pyridin-3-yl)ethyl)-4,5-dihydro-1H-pyrazolo[3,4-d]pyrimidine-3-carbonitrile] was tested, and the Ki was 608 nM. Compound `CC(c1ccc(C(F)(F)F)nc1)n1nc(C#N)c2c(=O)[nH]c(C3CCC3N3CCOCC3=O)nc21` (centres unmarked) [Example 30, 4-oxo-6-(2-(3-oxomorpholino)cyclobutyl)-1-(1-(6-(trifluoromethyl)pyridin-3-yl)ethyl)-4,5-dihydro-1H-pyrazolo[3,4-d]pyrimidine-3-carbonitrile] has a Ki of 608 nM. Compound `C[C@@H](c1ccc(C(F)(F)F)nc1)n1nc(C#N)c2c(=O)[nH]c(C3CCC3n3cc(C(F)(F)F)cn3)nc21` (stereo partly drawn) [Example 31, 4-oxo-6-(2-(4-(trifluoromethyl)-1H-pyrazol-1-yl)cyclobutyl)-1-((S)-1-(6-(trifluoromethyl)pyridin-3-yl)ethyl)-4,5-dihydro-1H-pyrazolo[3,4-d]pyrimidine-3-carbonitrile] has a Ki of 0.399 nM. In the case of `C[C@@H](c1ccc(C(F)(F)F)nc1)n1nc(C#N)c2c(=O)[nH]c(C3CCC3n3ccc(C(F)(F)F)n3)nc21` (stereo partly drawn) [Example 32, 4-oxo-6-(2-(3-(trifluoromethyl)-1H-pyrazol-1-yl)cyclobutyl)-1-((S)-1-(6-(trifluoromethyl)pyridin-3-yl)ethyl)-4,5-dihydro-1H-pyrazolo[3,4-d]pyrimidine-3-carbonitrile], the Ki is reported as 608 nM. For `CC(C1CCOCC1)n1nc(C#N)c2c(=O)[nH]c(C3CCC3n3cccn3)nc21` (centres unmarked) [Example 40, 6-(2-(1H-pyrazol-1-yl)cyclobutyl)-4-oxo-1-(1-(tetrahydro-2H-pyran-4-yl)ethyl)-4,5-dihydro-1H-pyrazolo[3,4-d]pyrimidine-3-carbonitrile], the Ki was 225 nM. `CC(C1CCOCC1)n1nc(C#N)c2c(=O)[nH]c(C3CCC3n3cc(C#N)cn3)nc21` (centres unmarked) [Example 41, 6-(2-(4-cyano-1H-pyrazol-1-yl)cyclobutyl)-4-oxo-1-(1-(tetrahydro-2H-pyran-4-yl)ethyl)-4,5-dihydro-1H-pyrazolo[3,4-d]pyrimidine-3-carbonitrile] was tested, and the Ki was 608 nM. For `C[C@@H](c1ccc(C(F)(F)F)nc1)n1nc(C#N)c2c(=O)[nH]c(C3CCC3n3cc(C(F)(F)F)cn3)nc21` (stereo partly drawn) [Example 43, 4-oxo-6-(2-(4-(trifluoromethyl)-1H-pyrazol-1-yl)cyclobutyl)-1-((S)-1-(6-(trifluoromethyl)pyridin-3-yl)ethyl)-4,5-dihydro-1H-pyrazolo[3,4-d]pyrimidine-3-carbonitrile], the Ki was 4.75 nM. `CC(c1ccc(C(F)(F)F)nc1)n1nc(C#N)c2c(=O)[nH]c(C3CCC3n3cc(C(F)F)cn3)nc21` (centres unmarked) [Example 45, 6-(2-(4-(difluoromethyl)-1H-pyrazol-1-yl)cyclobutyl)-4-oxo-1-(1-(6-(trifluoromethyl)pyridin-3-yl)ethyl)-4,5-dihydro-1H-pyrazolo[3,4-d]pyrimidine-3-carbonitrile] gave a Ki of 115 nM. `CC(C1CCOCC1)n1nc(C#N)c2c(=O)[nH]c(C3CCC3n3cccn3)nc21` (centres unmarked) [Example 46, 6-(2-(1H-pyrazol-1-yl)cyclobutyl)-4-oxo-1-(1-(tetrahydro-2H-pyran-4-yl)ethyl)-4,5-dihydro-1H-pyrazolo[3,4-d]pyrimidine-3-carbonitrile] was tested, and the Ki was 608 nM.
